SMILES strings stand for the structures.

We go through 12 compounds from patent US10316056B2, “Chemical compounds and use thereof for improving muscular quality” (BIOPHYTIS, priority 2014, dated 2019).

The subject of data set [1] is myostatin gene expression in C2C12 cells. The experiment in a line: Inhibition of myostatin expression in C2C12 cells (qPCR). Type of data set: cell-based. The settings on record: Mus musculus, percentage myostatin gene expression in cells in contact with the compounds related to control cells, C2C12, 6 h. The method in brief: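 C2C12 myoblasts differentiated to myotubes for 5 days in 2% serum, then treated 6 h with compounds in serum-free, low-glucose (1 g/l) DMEM; IGF-1 100 ng/ml as reference. Myostatin mRNA quantified by RT-qPCR, expressed relative to untreated control as R=2^-ΔΔCt.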
On the technique in general: In qPCR the cycle at which signal appears reflects the starting amount.

A short description of another data set: in vivo. The settings on record: male, Wistar, rat, po, 10 mg/kg.
The conditions of data set [2]: rat, in vivo, po; for Cexp (coefficient of exposure): male, Wistar.
Protocol: (§1) The pharmacokinetics of the compounds were evaluated orally using male Wistar rats (Charles River). […] The novel compounds according to the invention were administered at a dose of 10 mg/kg of body weight in the form of a mixture of 4 to 6 products. After administration, the blood was sampled from the tail at t=0.25 h, 0.5 h, 1 h, 3 h, 6 h and 8 h. The blood samples were centrifuged and the plasmas removed.
Data set [3] relates to S6 kinase (S6K1) phosphorylation in C2C12 cells. The experiment in a line: Phosphorylation of the S6 kinase in C2C12 cells (ELISA pS6K T389), protein synthesis. In kind it is cell-based, mouse. The settings on record: Mus musculus, C2C12, 2 h; for activity at 10 µM: read-out: Protein synthesis (percentage increase in S6K phosphorylation in muscle cells); for activity: test compounds and 20E reference (10 μM), read-out: S6K1 phosphorylation level. How it is done:
After several experiments in which the C2C12 cells differentiated into myotubes were incubated in the presence of IGF-1 or 20E for 2 h 30 or 6 h, two screening tests were developed. Thus, the phosphorylation of the S6 protein kinase and the expression of the myostatin gene were studied in order to determine their modulation by a growth hormone or an ecdysone and to characterize these modulations from a statistical point of view.
The C2C12 myoblast cells (ATCC CRL-1772) are seeded into 6-well plates at a density of 170 000 cells per well and cultured in a DMEM medium containing glucose in a proportion of 4.5 g/l and supplemented with fetal calf serum (10%) and with antibiotics (penicillin and streptomycin). Forty-eight hours later, the myoblasts are induced to differentiate by partial serum depletion (2% instead of 10%) for 5 days. The cells are then placed in a medium which is glucose-depleted (DMEM containing 1 g/l of glucose) and serum-free in the presence of the test molecules or of the references (100 ng/ml IGF-1 or 10 μM 20E) for 2 h. At the end of the experiment, the cells are lysed in a commercial lysis buffer (Invitrogen FNN0011) supplemented with a commercial mixture of anti-proteases (Roche 05056489001). After centrifugation, the cytoplasmic fraction containing the soluble proteins is kept and the protein concentration is determined using a commercial kit (Biorad 500-0114), the principle of which is composed of assaying by the Lowry method. The assaying of the S6 kinase phosphorylation is carried out using a commercial ELISA (Enzyme Linked ImmunoSorbent Assay) kit (Cell signaling 7063). Briefly, 50 μg of protein lysate are deposited in the wells of a 96-well microplate and incubated overnight at 4° C. with the solution of antigen specific for the pS6 kinase threonine 389 antibody. The binding of the antigen to the bottom of the wells is done electrostatically. The solution of antibody to be assayed (pS6K T389) is then incubated at 37° C. in the wells for 2 hours. The antibodies bind specifically to the antigen. The wells are then washed with washing buffer in order to remove the antigen-specific primary antibodies to be assayed which are in excess. The third step consists in binding the detection antibody. The solution of detection antibodies is incubated at 37° C. in the wells for 1 hour. The wells are then washed in order to remove the excess detection antibodies. It should be noted that the detection antibodies are coupled to an enzyme which, in the presence of its substrate, converts it into a reaction product that can be detected and measured by virtue of the appearance of a coloration. […] The appearance of a blue coloration in the substrate indicates the presence of the antibody to be assayed. In order to prevent any saturation phenomenon, a stop solution (generally containing […]) is added and brings about a change in coloration, which goes from blue to yellow. The strength thereof is proportional to the amount of enzyme present and thus to the concentration of antibody sought. The strength of the signal is measured using spectrophotometry at a wavelength of 450 nm.
In general terms: In an ELISA, binding on a coated surface is turned into a signal by an enzyme label.

Protocol for in vivo: as §1

As to `C/C(=N/OCCN1CCOCC1)[C@H]1CC[C@@]2(O)C3=CC(=O)[C@@H]4C[C@@H](O)[C@@H](O)C[C@]4(C)C3CC[C@]12C` (stereo partly drawn) [Compound 31, (2S,3R,5R,10R,13R,14S,17S)-2,3,14-trihydroxy-10,13-dimethyl-17-(C-methyl-N-(2-morpholinoethoxy)carbonimidoyl)-2,3,4,5,9,11,12,15,16,17-decahydro-1H-cyclopenta[a]phenanthren-6-one], in data set [1], the mrna remaining at 10 µM is below 70%. Also, in the data set “in vivo”, the AUC was 281 ng·h/mL, the Cmax is 105 ng/mL and the Tmax came to 15 min. Moreover, in data set [2], the “Cexp (coefficient of exposure)” value was determined as 3.7 and the “plasma exposure compared with 20E” value is on record as “better plasma exposure”.
Consider `CC(NCC1CCCO1)[C@H]1CC[C@@]2(O)C3=CC(=O)[C@@H]4C[C@@H](O)[C@@H](O)C[C@]4(C)C3CC[C@]12C` (stereo partly drawn) [Compound 46, (2S,3R,5R,10R,13R,14S,17S)-2,3,14-trihydroxy-10,13-dimethyl-17-[1-(tetrahydrofuran-2-ylmethylamino)ethyl]-2,3,4,5,9,11,12,15,16,17-decahydro-1H-cyclopenta[a]phenanthren-6-one], for which, in data set [3], the activity at 10 µM lay within 110 to 129% and the activity is around 120%. In addition, the mrna remaining at 10 µM in data set [1] was below 70%. In “in vivo”, the AUC was found to be 202 ng·h/mL, the Cmax is 40 ng/mL and the Tmax came out at 15 min. In data set [2], the “Cexp (coefficient of exposure)” value worked out at 2.6 and the “plasma exposure compared with 20E” value is “better plasma exposure”.
On to `CC([C@H]1CC[C@@]2(O)C3=CC(=O)[C@@H]4C[C@@H](O)[C@@H](O)C[C@]4(C)C3CC[C@]12C)N(CC1CCCO1)C(=O)c1ccco1` (stereo partly drawn) [Compound 63, N-(tetrahydrofuran-2-ylmethyl)-N-[1-[(2S,3R,5R,10R,13R,14S,17S)-2,3,14-trihydroxy-10,13-dimethyl-6-oxo-2,3,4,5,9,11,12,15,16,17-decahydro-1H-cyclopenta[a]phenanthren-17-yl]ethyl]furan-2-carboxamide], for which, in data set [3], the activity at 10 µM fell in the range of 110 to 129% and the activity was around 120%. For the same compound, the mrna remaining at 10 µM in data set [1] was below 70%.
For `CC([C@H]1CC[C@@]2(O)C3=CC(=O)[C@@H]4C[C@@H](O)[C@@H](O)C[C@]4(C)C3CC[C@]12C)N(CC(F)F)C(=O)c1ccco1` (stereo partly drawn) [Compound 67, N-(2,2-difluoroethyl)-N-[1-[(2S,3R,5R,10R,13R,14S,17S)-2,3,14-trihydroxy-10,13-dimethyl-6-oxo-2,3,4,5,9,11,12,15,16,17-decahydro-1H-cyclopenta[a]phenanthren-17-yl]ethyl]furan-2-carboxamide] the same measures were above 130%, 130 to 140% and below 70%.
For `COCCN(C)C(C)[C@H]1CC[C@@]2(O)C3=CC(=O)[C@@H]4C[C@@H](O)[C@@H](O)C[C@]4(C)C3CC[C@]12C` (stereo partly drawn) [Compound 76, (2S,3R,5R,10R,13R,14S,17S)-2,3,14-trihydroxy-17-[1-(2-methoxyethyl(methyl)amino)ethyl]-10,13-dimethyl-2,3,4,5,9,11,12,15,16,17-decahydro-1H-cyclopenta[a]phenanthren-6-one] the same measures were 110 to 129%, around 120% and below 70%.
Turning to `C[C@]12C[C@H](O)[C@H](O)C[C@H]1C(=O)C=C1C2CC[C@]2(C)[C@@H](C(=O)CN3CCOCC3)CC[C@@]12O` (stereo partly drawn) [Compound 81, (2S,3R,5R,10R,13R,14S,17S)-2,3,14-trihydroxy-10,13-dimethyl-17-(2-morpholinoacetyl)-2,3,4,5,9,11,12,15,16,17-decahydro-1H-cyclopenta[a]phenanthren-6-one], in data set [3], the activity at 10 µM was 110 to 129% and the activity is around 120%. Besides, in data set [1], the mrna remaining at 10 µM is below 70%.
With `C[C@]12C[C@H](O)[C@H](O)C[C@H]1C(=O)C=C1C2CC[C@]2(C)[C@@H](C(=O)CN3CCC(O)C3)CC[C@@]12O` (stereo partly drawn) [Compound 86, (2S,3R,5R,10R,13R,14S,17S)-2,3,14-trihydroxy-17-[2-(3-hydroxypyrrolidin-1-yl)acetyl]-10,13-dimethyl-2,3,4,5,9,11,12,15,16,17-decahydro-1H-cyclopenta[a]phenanthren-6-one], in data set [3], the activity at 10 µM is above 130% and the activity lay within 130 to 140%. In addition, in data set [1], the mrna remaining at 10 µM is below 70%.
`C[C@]12C[C@H](O)[C@H](O)C[C@H]1C(=O)C=C1C2CC[C@]2(C)[C@@H](C(=O)CN3CCC(O)CC3)CC[C@@]12O` (stereo partly drawn) [Compound 88, (2S,3R,5R,10R,13R,14S,17S)-2,3,14-trihydroxy-17-[2-(4-hydroxy-1-piperidyl)acetyl]-10,13-dimethyl-2,3,4,5,9,11,12,15,16,17-decahydro-1H-cyclopenta[a]phenanthren-6-one]: in data set [3], the activity at 10 µM was 110 to 129% and the activity is around 120%. Moreover, the mrna remaining at 10 µM in data set [1] was 71 to 85%.
For the compound `C[C@]12C[C@H](O)[C@H](O)C[C@H]1C(=O)C=C1C2CC[C@]2(C)[C@@H](C(=O)CN3CCC(CCO)CC3)CC[C@@]12O` (stereo partly drawn) [Compound 89, (2S,3R,5R,10R,13R,14S,17S)-2,3,14-trihydroxy-17-[2-[4-(2-hydroxyethyl)-1-piperidyl]acetyl]-10,13-dimethyl-2,3,4,5,9,11,12,15,16,17-decahydro-1H-cyclopenta[a]phenanthren-6-one], in data set [3], the activity at 10 µM was above 130% and the activity lay within 130 to 140%. Also, in data set [1], the mrna remaining at 10 µM was below 70%.
For `CN(C)CCCN(C)CC(=O)[C@H]1CC[C@@]2(O)C3=CC(=O)[C@@H]4C[C@@H](O)[C@@H](O)C[C@]4(C)C3CC[C@]12C` (stereo partly drawn) [Compound 91, (2S,3R,5R,10R,13R,14S,17S)-17-[2-(3-dimethylaminopropyl(methyl)amino)acetyl]-2,3,14-trihydroxy-10,13-dimethyl-2,3,4,5,9,11,12,15,16,17-decahydro-1H-cyclopenta[a]phenanthren-6-one], in data set [3], the activity at 10 µM lay in the range of 110 to 129% and the activity was around 120%. Also, in data set [1], the mrna remaining at 10 µM was in the range of 71 to 85%.
For `CCOC(=O)CSCC(=O)[C@H]1CC[C@@]2(O)C3=CC(=O)[C@@H]4C[C@@H](O)[C@@H](O)C[C@]4(C)C3CC[C@]12C` (stereo partly drawn) [Compound 92, Ethyl 2-[2-oxo-2-[(2S,3R,5R,10R,13R,14S,17S)-2,3,14-trihydroxy-10,13-dimethyl-6-oxo-2,3,4,5,9,11,12,15,16,17-decahydro-1H-cyclopenta[a]phenanthren-17-yl]ethyl]sulfanylacetate] the same measures were 110 to 129%, around 120% and below 70%.
In the case of `C[C@]12C[C@H](O)[C@H](O)C[C@H]1C(=O)C=C1C2CC[C@]2(C)[C@@H](C(=O)CSCCO)CC[C@@]12O` (stereo partly drawn) [Compound 94, (2S,3R,5R,10R,13R,14S,17S)-2,3,14-trihydroxy-17-[2-(2-hydroxyethylsulfanyl)acetyl]-10,13-dimethyl-2,3,4,5,9,11,12,15,16,17-decahydro-1H-cyclopenta[a]phenanthren-6-one], in data set [3], the activity at 10 µM was above 130% and the activity is 130 to 140%. The mrna remaining at 10 µM in data set [1] was below 70%.

As a reminder, the AUC is the area under the concentration-time curve, a measure of exposure. The low end stands for low exposure, the high end for high exposure. As usually defined, the Cmax is the peak of the concentration-time curve. A word on the Tmax: it is the time at which the peak concentration occurs.
